Laboratory results published in PubChem BioAssay (NCI).
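Cells were grown in 96-well plates and exposed to each compound for 48 hours at five concentrations; endpoints were interpolated linearly between bracketing concentrations, or set to the highest concentration if not reached. Abbreviation: GI50, concentration required for 50% inhibition of growth. TGI denotes the concentration required for complete inhibition of growth.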

Columns and labels:
Test in all cases: NCI-60 cell line screen, 48 h
[1] = system: A549 NSCLC
[2] = system: ACHN renal
[3] = system: EKVX NSCLC
[4] = system: HCT-116 colon
[5] = system: KM12 colon
[6] = system: SF-268 CNS
[7] = system: TK-10 renal
[8] = system: CAKI-1 renal

Compound	TGI [1]	TGI [2]	TGI [3]	TGI [4]	TGI [5]	TGI [6]	TGI [7]	TGI [8]	GI50 [2]	GI50 [8]	GI50 [4]	GI50 [5]	GI50 [1]	GI50 [3]	GI50 [6]	GI50 [7]
COc1cc([C@@H]2OC(=O)C3C2C(=O)O[C@H]3c2cc(OC)c(OC)c(OC)c2)cc(OC)c1OC (some centres not stated)	> 100 µM	> 100 µM	> 100 µM	> 100 µM	> 100 µM	> 100 µM	> 100 µM	–	–	–	–	–	–	–	–	–
N#CC(C#N)=C1SCC(=O)CS1	> 100 µM	–	> 100 µM	> 100 µM	> 100 µM	> 100 µM	> 100 µM	> 100 µM	–	–	–	–	–	–	–	–
COc1cc([N+](=O)[O-])c(OC)cc1-c1nc2sc(Cl)cn2c1/C=N/NC(=N)N/N=C/c1c(-c2cc(OC)c([N+](=O)[O-])cc2OC)nc2sc(Cl)cn12	–	4.88 µM	–	3.15 µM	2.95 µM	–	–	23.8 µM	2.23 µM	4.33 µM	1.76 µM	1.54 µM	–	–	–	–
CCOC(=O)NC(=O)c1cn(CCN2CCN(C(=O)NCCCCCCNC(=O)N3CCN(CCn4cc(C(=O)NC(=O)OCC)c(=O)n(CCN(CC)CC)c4=O)CC3)CC2)c(=O)n(CCC(CC)CC)c1=O	> 100 µM	> 100 µM	> 100 µM	> 100 µM	> 100 µM	> 100 µM	> 100 µM	–	–	–	–	–	–	–	–	–
C[CH2][Sn]([Cl])([Cl])[CH2]C	> 100 µM	58.5 µM	> 100 µM	> 100 µM	> 100 µM	79.1 µM	32.4 µM	25.8 µM	24.1 µM	8.91 µM	> 63.4 µM	> 100 µM	> 100 µM	> 65.6 µM	29.7 µM	18.3 µM
C=C(C)[C@H](O)C(O)CC(C)[C@@H]1CCC23CC12CCC1[C@@]2(C)CCC(OC(C)=O)C(C)(C)C2CC(OC2OC(COC(C)=O)C(O)C(O)C2O)[C@]13C (some centres not stated)	12.2 µM	12.6 µM	12.7 µM	9.27 µM	11.3 µM	11 µM	12.5 µM	12.1 µM	–	–	–	–	–	–	–	–
O=C1CCCC1NC(=O)C(F)(F)F (configuration not stated)	> 100 µM	> 100 µM	> 100 µM	> 100 µM	> 100 µM	> 100 µM	> 100 µM	> 100 µM	–	–	–	–	–	–	–	–
Clc1ccc(SCCCCCCCCCCSc2ccc(Cl)cc2)cc1	> 100 µM	> 73.5 µM	> 96.6 µM	> 100 µM	> 70.4 µM	> 100 µM	> 77.9 µM	> 100 µM	–	–	–	–	–	–	–	–
Cc1cccc2c1C(=O)OC2(C)c1cccc2ccccc12 (configuration not stated)	> 100 µM	> 100 µM	> 100 µM	–	> 100 µM	> 100 µM	95.2 µM	> 100 µM	–	–	–	–	–	–	–	–
COc1ccc2c(c1)CC1c3c(cc4c(c3-2)OCO4)CCN1C (configuration not stated)	61 µM	36.1 µM	81.5 µM	70.6 µM	> 100 µM	–	71.3 µM	60.2 µM	–	–	–	–	–	–	–	–
C=CCN=C1NC(=O)C(CC(=O)Nc2ccc(C)cc2)S1 (configuration not stated)	> 100 µM	> 100 µM	> 100 µM	–	> 100 µM	> 100 µM	> 100 µM	> 100 µM	–	–	–	–	–	–	–	–
O=C(N/C(=C\c1ccc(Oc2ccc(Cl)c(Cl)c2)cc1)c1nc2ccccc2[nH]1)c1ccccc1	54.4 µM	50.9 µM	50.5 µM	–	30.4 µM	37.1 µM	57.7 µM	47.9 µM	–	–	–	–	–	–	–	–
CCOc1ccccc1NC(=O)C1=C(C)NC(C)=C(C(=O)Nc2ccccc2OCC)C1c1ccc(NC(C)=O)cc1	> 100 µM	> 100 µM	> 100 µM	–	> 100 µM	> 100 µM	> 100 µM	> 100 µM	–	–	–	–	–	–	–	–
CC1=Nn2c(nnc2-c2ccc(N)cc2)NC(C)(C)C1	> 100 µM	> 100 µM	> 100 µM	–	> 100 µM	> 100 µM	> 100 µM	> 100 µM	–	–	–	–	–	–	–	–
O=C1C[C@H]2CC3(CC[C@H]2CN1)OCCO3	> 100 µM	–	> 100 µM	> 100 µM	> 100 µM	> 100 µM	> 100 µM	> 100 µM	–	–	–	–	–	–	–	–
Cn1c(=O)c(C(=O)NC(=O)OCc2ccccc2)cn(CCSCCOC(=O)NCCCCCCNC(=O)OCCSCCn2cc(C(=O)NC(=O)OCc3ccccc3)c(=O)n(C)c2=O)c1=O	> 100 µM	> 100 µM	> 100 µM	> 100 µM	–	> 100 µM	> 100 µM	–	–	–	–	–	–	–	–	–
Cc1ccc(N2C(=O)/C(=C/c3ccc(N(CCC#N)CCC#N)cc3C)N=C2c2cc([N+](=O)[O-])ccc2Cl)cc1	> 100 µM	> 100 µM	–	> 100 µM	> 100 µM	> 100 µM	> 100 µM	> 100 µM	–	–	–	–	–	–	–	–
Cc1ccc(/C=C2\CCCC\C2=N\O)cc1	> 100 µM	> 100 µM	> 100 µM	> 100 µM	–	> 100 µM	> 100 µM	> 100 µM	–	–	–	–	–	–	–	–
CC12CC3CC(C1)CC(N=[N+]=[N-])(C3)C2	> 100 µM	> 100 µM	> 100 µM	> 100 µM	> 100 µM	–	> 100 µM	> 100 µM	–	–	–	–	–	–	–	–
O=C(/C=C1/NC(=O)CS1)Nc1ccccc1	> 100 µM	–	> 100 µM	> 100 µM	> 100 µM	> 100 µM	> 100 µM	> 100 µM	–	–	–	–	–	–	–	–
